Test results taken from patent US20240197672A1, “COMPOSITION FOR INHIBITING SKIN PIGMENTATION THROUGH AUTOPHAGY ACTIVITY CONTAINING PROCYANIDIN A2 AND QUERCETIN, AS ACTIVE INGREDIENTS” (KYUNGPOOK NATIONAL UNIVERSITY INDUSTRY-ACADEMIC COOPERATION …, priority 2022, published 2024).

Key:
mushroom tyrosinase = experiment: Tyrosinase inhibitory activity (L-DOPA, DOPA chrome at 475 nm); format: biochemical; settings: for tyrosinase inhibitory activity: Example 1, FIG. 1; for Inhibitory Activity (%): Example 2, Table 2
Description: In the reaction mixture, 0.5 ml of 0.175 M sodium phosphate buffer (pH 6.8), 0.2 ml of a substrate solution containing 10 mM L-DOPA, and 0.1 ml of the sample solution were mixed, followed by the addition of 0.2 ml of mushroom tyrosinase (110 unit/ml). The reaction was carried out for 2 minutes at 25° C., and the DOPA chrome produced in the reaction mixture was measured at 475 nm. Tyrosinase inhibitory activity was expressed as the percentage reduction in absorbance compared to the control group without sample solution.

MNT-1 cells [1] = experiment: Cell viability / cytotoxicity, MTT assay; format: cell-based, human; settings: MNT-1, 72 hours
Description: To examine the cell toxicity of procyanidin A2, quercetin, and their combination, a cell viability analysis was conducted. Specifically, cell survival and cytotoxicity were measured using the 3-(4,5-dimethylthiazol-2-yl)-2,5-diphenyltetrazoliumbromide (MTT) Assay. MNT-1 cells were seeded in a 96 well plate at 1×10^5 cells/well and cultured for 24 hours in a 37° C., 5% CO2 incubator. After that, each compound was treated according to Table 4 and cultured for 72 hours. Then, MTT solution at a final concentration of 0.5 mg/ml was added and reacted for 4 hours at 37° C. The media containing MTT solution was removed, and 100 μl of DMSO was treated in each well to dissolve the formazan precipitate formed in reaction with the living cells. Absorbance was measured at 550 nm using an ELISA reader (CLARIOstar Plus, BMG LABTECH, Germany).

MNT-1 cells [2] = experiment: Melanin production in MNT-1 cells (absorbance 490 nm); format: cell-based, human; settings: MNT-1, 72 hours
Description: The melanin inhibitory effects of each substance were confirmed through an analysis of melanin production following treatment with procyanidin A2, quercetin, and their combination. Specifically, MNT-1 cells (human-derived melanoma skin cells) were treated for 72 hours with procyanidin A2, quercetin, and the combination at the maximum concentration without cytotoxicity according to Table 5. The negative control group was untreated, and arbutin, a tyrosinase inhibitor, was used as the positive control. Afterward, the media was removed, the cell bodies were dissolved with 1 N NaOH, heated at 95° C. for 5 minutes, and the absorbance was measured at 490 nm using a microplate reader (Molecular Devices, Sunnyvale, CA, USA).

[3] = system: tyrosinase, TRP-1, TRP-2, MITF in MNT-1 cells; experiment: Melanin synthesis-related protein expression (western blot); format: cell-based, human; settings: MNT-1, FIG. 5
Description: (§1) Specifically, after treating with procyanidin A2, quercetin, and the combination, MNT-1 cells were washed twice in ice-cold PBS and lysed in ice-cold RIPA buffer (Sigma-Aldrich). Protein concentration was measured using a Bicinchoninic acid (BCA) protein assay kit (Pierce, Rockford, IL, USA), and 35 μg of protein was separated using sodium dodecyl sulfate-polyacrylamide gel electrophoresis (10%) and transferred to a nitrocellulose membrane (Whatman, Dassel, Germany). The membrane was blocked in 5% non-fat milk in TBST buffer (1:5000) and then treated with primary (1:1000) and secondary antibodies (Table 6). Protein bands were detected using SuperSignal West Femto maximum sensitivity substrate (Thermo Fisher Scientific, Rockford, IL, USA) and quantified using Image Lab™ software (version 5.2.1).

[4] = system: LC3-II, ATG5, Beclin-1, p62, LC3-I in MNT-1 cells; experiment: Autophagy activity-related protein expression (western blot); format: cell-based, human; settings: for expression levels of LC3-II, ATG5, and Beclin-1: MNT-1, FIG. 6
Description: as §1
LC3-II, ATG5, and Beclin-1 are involved in the formation of autophagosomes and activate autophagy. In contrast, p62 and LC3-I, which show characteristics of being decomposed during autophagosome formation, decrease when autophagy activate. To verify the autophagy activity of procyanidin A2, quercetin, and their combination, the expression levels of autophagy-activity-related proteins were analyzed. The specific method for this experiment, except for using Table 8 for antibodies, was conducted in the same manner as the method in Example 5 for the analysis of melanin synthesis-related protein expression.

[5] = procyanidin A2 only, 50 μM, MNT-1

SMILES: O=c1c(O)c(-c2ccc(O)c(O)c2)oc2cc(O)cc(O)c12 [quercetin, 2-(3,4-dihydroxyphenyl)-3,5,7-trihydroxy-4H-chromen-4-one]
- tyrosinase inhibitory activity (mushroom tyrosinase; 2.5 μM): 17.65%
- Inhibitory Activity (%) (mushroom tyrosinase; 2.5 μM): 17.05%
- tyrosinase inhibitory activity (mushroom tyrosinase; 5 μM): 32.08%
- Inhibitory Activity (%) (mushroom tyrosinase; 5 μM): 31.61%
- tyrosinase inhibitory activity (mushroom tyrosinase; 10 μM): 49.44%
- cytotoxicity (MNT-1 cells [1]; approximately 25 μM and below): no cytotoxicity
- melanin production reduced to (NT set to 100%) (MNT-1 cells [2]; 20 μM): 64.5%
- protein expression of tyrosinase, TRP-1, and TRP-2 ([3]; 20 μM): reduction
- expression levels of LC3-II, ATG5, and Beclin-1 ([4]; 20 μM): little to no significant change or only slight increases

SMILES: Oc1cc(O)c2c(c1)O[C@@]1(c3ccc(O)c(O)c3)Oc3cc(O)c4c(c3[C@@H]2[C@H]1O)O[C@H](c1ccc(O)c(O)c1)[C@H](O)C4 [procyanidin A2]
- tyrosinase inhibitory activity (mushroom tyrosinase; 2.5 μM): 29.82%
- Inhibitory Activity (%) (mushroom tyrosinase; 2.5 μM): 30.27%
- tyrosinase inhibitory activity (mushroom tyrosinase; 5 μM): 51.12%
- Inhibitory Activity (%) (mushroom tyrosinase; 5 μM): 49.04%
- tyrosinase inhibitory activity (mushroom tyrosinase; 10 μM): 68.81%
- cytotoxicity (MNT-1 cells [1]; 100 μM): toxicity
- cytotoxicity (MNT-1 cells [1]; concentrations below 50 μM): no cytotoxicity
- melanin production reduced to (NT set to 100%) (MNT-1 cells [2]; 50 μM): 72.3%
- protein expression of tyrosinase, TRP-1, and TRP-2 ([3]; 50 μM): reduction
- expression levels of LC3-II, ATG5, and Beclin-1 ([4]; 50 μM): little to no significant change or only slight increases
- ATG5 and Beclin-1 expression [4, 5]: slight increase
- P62 expression [4, 5]: slight increase
- ratio of LC3-II to LC3-I [4, 5]: remained similar to the control group

SMILES: OC[C@H]1O[C@@H](Oc2ccc(O)cc2)[C@H](O)[C@@H](O)[C@@H]1O [arbutin, reference compound]
- tyrosinase inhibition (mushroom tyrosinase; 300 μM, positive control, Example 1): 58.79%
- melanin production reduced by (NT set to 100%) (MNT-1 cells [2]; arbutin 1 mM): about 57.1%
